Data as given in patent US20240156996A1, “BIOCOMPATIBLE RADIONUCLIDE-CONTAINING COMPOSITIONS AND METHODS OF USE” (priority 2022, published 2024).

Assay: Encapsulation efficiency of 225Ac within PLGA nanoparticles (γ-ray spectroscopy after washing)
Format: physicochemical
Settings: 95:5, 90:10, 75:25 MeOH:DI H2O; FIG. 2
Description: A double-emulsion solvent evaporation method was adapted for the synthesis of PLGA-chelator compound radioisotope complex. The main differences include: (1) using a cup-horn sonicator to generate emulsions and (2) decreasing the reagent volumes to minimize the generation of radiological waste. In a typical synthesis, 100 μL of PLGA dissolved in EtOAc at 40 mg/mL were mixed with 10 μL of 225Ac-chelator compound radioisotope complex in a polar solution (i.e., DI H2O, MeOH, or a mixture of both) within an Eppendorf tube. This mixture was sonicated for 30 s in a cup-horn sonicator to generate a water/oil emulsion. […]
As described above, PLGA nanoparticles were synthesized encapsulating free ^225Ac or ^225Ac-BLPhen complex in a methanol/deionized water (MeOH/DI H2O) mixture. […] The encapsulation efficiency of ^225Ac was determined after washing the PLGA nanoparticle suspensions three times with DI H2O. […] The PLGA nanoparticle suspension, the supernatant, and the Eppendorf tube used for sonication were assayed using γ-ray spectroscopy on a high purity germanium detector coupled to a PC-based multichannel analyzer to account for total radioactivity distribution. […] Energy and efficiency calibrations were determined by γ-ray sources traceable to the National Institute of Standards and Technology.

For `[225Ac]` [^225Ac, actinium-225], the “effect of increasing the water content in the MeOH/DI H2O mixture on encapsulation efficiency within PLGA nanoparticles” value was “decreased the encapsulation efficiency”.
